Results from PubChem BioAssay AID1259407 (Chemical Carcinogenesis Research Information System (CCRIS), 2018).
Active and inactive are the calls of the source. How the calls were made is not given here.

System: CCRIS mutagenicity, Ames/micronucleus/aberration tests
Experiment: CCRIS mutagenicity studies
[1] = Test System: AMES SALMONELLA TYPHIMURIUM, Strain/Indicator: TA98, Metabolic Activation: NONE, Method: PREINCUBATION
[2] = Test System: AMES SALMONELLA TYPHIMURIUM, Strain/Indicator: TA100, Metabolic Activation: NONE, Method: PREINCUBATION
[3] = Test System: AMES SALMONELLA TYPHIMURIUM, Strain/Indicator: TA1535, Metabolic Activation: NONE, Method: PREINCUBATION

Question: For Nc1ccccc1C(=O)OC1CCCCC1, which mutagenic call (Test System: AMES SALMONELLA TYPHIMURIUM, Strain/Indicator: TA97, Metabolic Activation: HAMSTER, LIVER, S-9, AROCLOR 1254 (10%), Method: PREINCUBATION) is on record?
Answer: inactive; negative

Question: What about the mutagenic call (Test System: AMES SALMONELLA TYPHIMURIUM, Strain/Indicator: TA97, Metabolic Activation: HAMSTER, LIVER, S-9, AROCLOR 1254 (30%), Method: PREINCUBATION) of the same compound?
Answer: inactive; negative

Question: What about the mutagenic call (Test System: AMES SALMONELLA TYPHIMURIUM, Strain/Indicator: TA97, Metabolic Activation: NONE, Method: PREINCUBATION) of the same compound?
Answer: inactive; negative

Question: And the mutagenic call (Test System: AMES SALMONELLA TYPHIMURIUM, Strain/Indicator: TA97, Metabolic Activation: RAT, LIVER, S-9, AROCLOR 1254 (10%), Method: PREINCUBATION)?
Answer: inactive; negative

Question: What about the mutagenic call (Test System: AMES SALMONELLA TYPHIMURIUM, Strain/Indicator: TA97, Metabolic Activation: RAT, LIVER, S-9, AROCLOR 1254 (30%), Method: PREINCUBATION) of the same compound?
Answer: inactive; negative

Question: What about the mutagenic call (Test System: AMES SALMONELLA TYPHIMURIUM, Strain/Indicator: TA98, Metabolic Activation: HAMSTER, LIVER, S-9, AROCLOR 1254 (10%), Method: PREINCUBATION) of the same compound?
Answer: inactive; negative

Question: And the mutagenic call (Test System: AMES SALMONELLA TYPHIMURIUM, Strain/Indicator: TA98, Metabolic Activation: HAMSTER, LIVER, S-9, AROCLOR 1254 (30%), Method: PREINCUBATION)?
Answer: inactive; negative

Question: What about the mutagenic call [1] of the same compound?
Answer: inactive; negative

Question: What about the mutagenic call (Test System: AMES SALMONELLA TYPHIMURIUM, Strain/Indicator: TA98, Metabolic Activation: RAT, LIVER, S-9, AROCLOR 1254 (10%), Method: PREINCUBATION) of the same compound?
Answer: inactive; negative

Question: And the mutagenic call (Test System: AMES SALMONELLA TYPHIMURIUM, Strain/Indicator: TA98, Metabolic Activation: RAT, LIVER, S-9, AROCLOR 1254 (30%), Method: PREINCUBATION)?
Answer: inactive; negative

Question: And the mutagenic call (Test System: AMES SALMONELLA TYPHIMURIUM, Strain/Indicator: TA100, Metabolic Activation: HAMSTER, LIVER, S-9, AROCLOR 1254 (10%), Method: PREINCUBATION)?
Answer: inactive; negative

Question: What about the mutagenic call (Test System: AMES SALMONELLA TYPHIMURIUM, Strain/Indicator: TA100, Metabolic Activation: HAMSTER, LIVER, S-9, AROCLOR 1254 (30%), Method: PREINCUBATION) of the same compound?
Answer: inactive; negative

Question: And the mutagenic call [2]?
Answer: inactive; negative

Question: What about the mutagenic call (Test System: AMES SALMONELLA TYPHIMURIUM, Strain/Indicator: TA100, Metabolic Activation: RAT, LIVER, S-9, AROCLOR 1254 (10%), Method: PREINCUBATION) of the same compound?
Answer: inactive; negative

Question: What about the mutagenic call (Test System: AMES SALMONELLA TYPHIMURIUM, Strain/Indicator: TA100, Metabolic Activation: RAT, LIVER, S-9, AROCLOR 1254 (30%), Method: PREINCUBATION) of the same compound?
Answer: inactive; negative

Question: And the mutagenic call (Test System: AMES SALMONELLA TYPHIMURIUM, Strain/Indicator: TA1535, Metabolic Activation: HAMSTER, LIVER, S-9, AROCLOR 1254 (10%), Method: PREINCUBATION)?
Answer: inactive; negative

Question: And the mutagenic call (Test System: AMES SALMONELLA TYPHIMURIUM, Strain/Indicator: TA1535, Metabolic Activation: HAMSTER, LIVER, S-9, AROCLOR 1254 (30%), Method: PREINCUBATION)?
Answer: inactive; negative

Question: What about the mutagenic call [3] of the same compound?
Answer: inactive; negative

Question: What about the mutagenic call (Test System: AMES SALMONELLA TYPHIMURIUM, Strain/Indicator: TA1535, Metabolic Activation: RAT, LIVER, S-9, AROCLOR 1254 (10%), Method: PREINCUBATION) of the same compound?
Answer: inactive; negative

Question: And the mutagenic call (Test System: AMES SALMONELLA TYPHIMURIUM, Strain/Indicator: TA1535, Metabolic Activation: RAT, LIVER, S-9, AROCLOR 1254 (30%), Method: PREINCUBATION)?
Answer: inactive; negative

Question: Which results are given for CN(C)c1ncnc2nc[nH]c12?
Answer: mutagenic call [1]: inactive; negative; mutagenic call (Test System: AMES SALMONELLA TYPHIMURIUM, Strain/Indicator: TA98, Metabolic Activation: RAT, LIVER, S9, Method: PREINCUBATION): inactive; negative; mutagenic call [2]: inactive; negative; mutagenic call (Test System: AMES SALMONELLA TYPHIMURIUM, Strain/Indicator: TA100, Metabolic Activation: RAT, LIVER, S9, Method: PREINCUBATION): inactive; negative; mutagenic call [3]: active; positive; mutagenic call (Test System: AMES SALMONELLA TYPHIMURIUM, Strain/Indicator: TA1535, Metabolic Activation: RAT, LIVER, S9, Method: PREINCUBATION): active; positive; mutagenic call (Test System: AMES SALMONELLA TYPHIMURIUM, Strain/Indicator: TA1537, Metabolic Activation: NONE, Method: PREINCUBATION): inactive; negative; mutagenic call (Test System: AMES SALMONELLA TYPHIMURIUM, Strain/Indicator: TA1537, Metabolic Activation: RAT, LIVER, S9, Method: PREINCUBATION): inactive; negative; mutagenic call (Test System: E. COLI, Strain/Indicator: WP2UVRA, Metabolic Activation: NONE, Method: PREINCUBATION): inactive; negative; mutagenic call (Test System: E. COLI, Strain/Indicator: WP2UVRA, Metabolic Activation: RAT, LIVER, S9, Method: PREINCUBATION): inactive; negative

Question: Which mutagenic call (End Point: IN VITRO CHROMOSOMAL ABERRATIONS, Test System: CHINESE HAMSTER OVARY CELLS, Metabolic Activation: NONE) does the source give for Cc1ccc(Cl)cc1N here?
Answer: inactive; negative

Question: What about the mutagenic call (End Point: IN VITRO CHROMOSOMAL ABERRATIONS, Test System: CHINESE HAMSTER OVARY CELLS, Metabolic Activation: RAT, LIVER, S-9, AROCLOR 1254) of the same compound?
Answer: inactive; negative

Question: What about the mutagenic call (Test System: UDS RODENT HEPATOCYTES, Strain/Indicator: THY INCORP (NON-S-PHASE), Metabolic Activation: NONE, Method: AUTORADIOGRAPHY) of the same compound?
Answer: inactive; negative

Question: Which mutagenic call (Test System: AMES SALMONELLA TYPHIMURIUM, Strain/Indicator: TA98, Metabolic Activation: NONE, Method: STANDARD PLATE) does the source give for O=C(c1ccccc1)C1OC1c1ccc(Oc2ccccc2)cc1 (configuration not stated) here?
Answer: inactive; negative

Question: And the mutagenic call (Test System: AMES SALMONELLA TYPHIMURIUM, Strain/Indicator: TA98, Metabolic Activation: RAT, LIVER, S-9, AROCLOR 1254, Method: STANDARD PLATE)?
Answer: inactive; negative

Question: What about the mutagenic call (Test System: AMES SALMONELLA TYPHIMURIUM, Strain/Indicator: TA100, Metabolic Activation: NONE, Method: STANDARD PLATE) of the same compound?
Answer: inactive; negative

Question: And the mutagenic call (Test System: AMES SALMONELLA TYPHIMURIUM, Strain/Indicator: TA100, Metabolic Activation: RAT, LIVER, S-9, AROCLOR 1254, Method: STANDARD PLATE)?
Answer: inactive; negative
